Measured values as given in US20130085133A1, “ANTI-VIRAL TREATMENT AND ASSAY TO SCREENFOR ANTI-VIRAL AGENT” (Sourthern Research Institute Office of Commercialization …, priority 2010, published 2013).

How the values were obtained:
[1] = system: respiratory syncytial virus (RSV) strain Long; test: microbe, parasite or virus in culture; conditions: human respiratory syncytial virus, HEp-2, 144 h
Method: The assay measures RSV virus-induced CPE in HEp-2 cells using cell viability as the end point.
Two vials of RSV (strain Long) containing 1×10^7 pfu/mL was thawed using an Eppendorf thermomixer for 13 min at 15° C., with shaking at 350 rpm. […] The cells were incubated for 18-20 h at 37° C., 5% CO2, 90% relative humidity. The medium was aspirated and the cells washed with 10 mL PBS without Mg^2+ or Ca^2+. Cells were harvested from flasks using 0.25% trypsin-EDTA. The cells were resuspended in a freezing medium of 95% fetal calf serum and 5% DMSO to a final cell density of 2×10^6 cells/mL. One mL aliquots of this virus infected cell suspension were dispensed to cryovials and cells were rate frozen to −80° C. Frozen infected cells were then transferred to −150° C. for long term storage.
Test compounds were evaluated by measuring their antiviral activity, cell toxicity, and selectivity. Test compounds were serially diluted in a plate to plate matrix or “stacked plate” matrix. All 320 compounds in a source plate were diluted together resulting in a 10 point dose response dilution series. It was visualized as a serial dilution series proceeding vertically through a stack of plates with the high dose plate on top and the low dose plate on the bottom.
Cells were harvested and resuspended to 80,000 cells per ml in Complete DMEM/F12.
Cells were thawed in a room temperature water bath with gentle agitation. The tube was inverted 5-10. Cells were diluted to 80,000 cells per ml by adding the contents of the vial to 24 ml of cold (4° C.) media.
Twenty five ul of uninfected HEp-2 cells were plated in the cell control wells. Frozen infected cells were combined with uninfected HEp-2 cells at a 1:100 ratio. Twenty five ul of the cell mixture was added to the virus control and compound wells. All cell plating was conducted using a Matrix WellMate and cells were maintained at room temperature with stirring during the plating process. The assay plates were incubated for six days at 37° C., 5% CO2 and 90% relative humidity.
Following the six day incubation period, the assay plates were equilibrated to room temperature for 30 min and an equal volume (30 μL) of Cell Titer-Glo reagent (Promega Inc.) was added to each well using a WellMate (Matrix, Hudson, N.H.) and plates were incubated for an additional 10 min at room temperature. At the end of the incubation, luminescence was measured using a Perkin Elmer Envision™ multi-label reader (PerkinElmer, Wellesley, Mass.) with an integration time of 0.1 s.
Data was analyzed using ActivityBase software (IDBS, Inc, Guilford, UK). thirty two control wells containing cells only and twenty four wells containing cells and virus were included on each assay plate and used to calculate Z′ value for each plate and to normalize the data on a per plate basis. […] Eight ribavirin positive control wells were included on each plate for quality control purposes, but were not used in Z′ calculations. […] In the toxicity assay, results are described as percent viability and the calculation is the same.
An EC50 (for CPE inhibition) and IC50 (for cell viability) were calculated for each substance using the 4 parameter Levenburg-Marquardt algorithm with parameter A locked at 0 and parameter B locked at 100. Standard deviation, normalized chi2 and hill slope were used to evaluate the curves. Values were not extrapolated beyond the tested range of concentrations.

[2] = cytotoxicity assay (percent viability of HEp-2 cells, Cell Titer-Glo); conditions: human, HEp-2 cells

| SMILES | EC50 [1] | CC50 at 6 days [2] |
| --- | --- | --- |
| Cc1ccc(NC(=O)CN2CCCC2)c(Br)c1 [AB00358122] | 20.1 µg/mL | > 25 µg/mL |
| Cc1nc(N)sc1-c1nnc(Nc2ccccc2)s1 [AB00358926] | 12.7 µg/mL | > 25 µg/mL |
| CC(=O)Nc1ccc(C(=O)OCc2ccc(C(C)=O)cc2)cc1 [AB00359127] | 18.9 µg/mL | > 25 µg/mL |
| CC1CCCCN1C(=O)c1ccc(NC(=O)c2ccccc2Cl)cc1 (centres unmarked) [AB00359707] | 11.4 µg/mL | > 25 µg/mL |
| COc1ccc(S(=O)(=O)N2CCC(C(=O)N3CCN(c4ccccc4)CC3)CC2)cc1Cl [AB00362388] | 17 µg/mL | > 25 µg/mL |
| C=CCN(CC=C)C(=O)c1ccc(OC)c(I)c1 [AB00362750] | 21 µg/mL | > 25 µg/mL |
| Fc1cnc(N2CCOCC2)nc1N1CCc2ccccc21 [AB00362810] | 21.1 µg/mL | > 25 µg/mL |
| S=C(c1ccc(OCc2cccc3ccccc23)cc1)N1CCOCC1 [AB00362891] | 23.4 µg/mL | > 25 µg/mL |
| CC1(C)Cc2c(sc(NC(=O)c3ccccc3Br)c2C(N)=O)CO1 [AB00363547] | 13.3 µg/mL | > 25 µg/mL |
| CCC(=O)Nc1ccc(C(=O)OCc2cccc(F)c2)cc1 [AB00363859] | 12.6 µg/mL | > 25 µg/mL |
| COc1ccc(-n2nnnc2SCCO)cc1 [AB00364099] | 19.2 µg/mL | > 25 µg/mL |
| COc1ccc(NC(=O)c2ccc(C)c(S(=O)(=O)Nc3ccccc3C)c2)cc1OC [AB00364640] | 11.5 µg/mL | > 25 µg/mL |
| CCOC(=O)c1ccc(NC(=O)Nc2ccccc2OC)cc1 [AB00365318] | 11.6 µg/mL | > 25 µg/mL |
| CC(Oc1ccc(-c2ccccc2)cc1)C(=O)Nc1nnc(C2CCCO2)s1 (centres unmarked) [AB00365647] | 19.3 µg/mL | > 25 µg/mL |
| O=C(Nc1c(F)cc(F)cc1Br)c1ccc(Cl)s1 [AB00366410] | 20.2 µg/mL | > 25 µg/mL |
| O=C(NC1=NCCS1)c1cc2c(s1)CCCCCC2 [AB00367559] | 19.6 µg/mL | > 25 µg/mL |
| CCn1c(=O)n(CC)c2cc(NC(=O)c3ccccc3Cl)c(Br)cc21 [AB00369510] | 10.4 µg/mL | > 25 µg/mL |
| CSc1ccc(Cl)c(C(=O)Nc2ccc(Cc3ccccn3)cc2)c1 [AB00369798] | 11.6 µg/mL | > 25 µg/mL |
| O=C(Nc1ccc2c(c1)ncn2C1CCCCC1)c1cccs1 [AB00369934] | 13.6 µg/mL | > 25 µg/mL |

| SMILES | EC50 [1] | CC50 at 6 days [2] |
| --- | --- | --- |
| c1coc(-c2nn3c(Cn4nnc5ccccc54)nnc3s2)c1 [AB00370063] | 1.97 µg/mL | > 25 µg/mL |
| O=S(=O)(Nc1ccc(-c2cn3cccnc3n2)cc1)c1cc(Cl)ccc1Cl [AB00370838] | 22.5 µg/mL | > 25 µg/mL |
| Cn1c(SCC(=O)N2c3ccccc3SC3C=CC=CC32)nnc1-c1ccccc1 (centres unmarked) [AB00370949] | 18.8 µg/mL | > 25 µg/mL |
| Cc1cc(C)n2nc(C(=O)Nc3cnn(C45CC6CC(CC(C6)C4)C5)c3)cc2n1 [AB00371387] | 12.7 µg/mL | > 25 µg/mL |
| Cc1cc(SCCC#N)nc2ccccc12 [AB00371866] | 13.7 µg/mL | > 25 µg/mL |
| CCOc1nc2sc3c(c2c2ncnn12)CCCC3 [AB00372085] | 11.6 µg/mL | > 25 µg/mL |
| O=c1c2c3c(sc2ncn1CCO)CCCC3 [AB00372624] | 23.6 µg/mL | > 25 µg/mL |
| N#CCCCCN1c2cccc3cccc(c23)S1(=O)=O [AB00373143] | 14.3 µg/mL | > 25 µg/mL |
| CCOC(=O)CCC(NC(=O)c1cnc(NCc2cnc3nc(N)nc(N)c3c2C)s1)C(=O)OCC (centres unmarked) [AB00375242] | 42 µM | > 50 µM |
| OCc1cccc2c(Br)cccc12 [AB00375379] | 39.2 µM | > 50 µM |
| N#Cc1c(Cl)nc(N)c(N)c1C(F)(F)F [AB00430151] | 38.4 µM | > 50 µM |
| NC(=O)c1ncn([C@@H]2O[C@H](CO)[C@@H](O)[C@H]2O)n1 [AB00430481] | 38.8 µM | > 50 µM |
| CNc1ncnc2c1ncn2[C@H]1C[C@@H](CO)[C@H](O)[C@@H]1O [AB00430484] | 33.7 µM | > 50 µM |
| Nc1c(N=Nc2ccc(-c3ccc(N=Nc4cc(S(=O)(=O)O)c5ccccc5c4N)cc3)cc2)cc(S(=O)(=O)O)c2ccccc12 [AB00443629] | 35.6 µM | > 50 µM |
| CC(C)CCCC(C)C1CC[C@@H]2[C@@H]3CC[C@@H]4CC(CCC=C(c5cc(Cl)c(O)c(C(=O)O)c5)c5cc(Cl)c(O)c(C(=O)O)c5)CC[C@]4(C)[C@@H]3CC[C@]12C (some centres unmarked) [AB00443953] | 21.3 µM | > 50 µM |
| O=S(=O)(O)c1cc(/N=N/c2cc(S(=O)(=O)O)c3cccnc3c2O)ccc1CCc1ccc(/N=N/c2cc(S(=O)(=O)O)c3cccnc3c2S)cc1S(=O)(=O)O [AB00444131] | 18.8 µM | > 50 µM |
| O=S(=O)(O)c1cc(/N=N/c2cc(S(=O)(=O)O)c3cccnc3c2O)ccc1/C=C/c1ccc(/N=N/c2cc(S(=O)(=O)O)c3cccnc3c2O)cc1S(=O)(=O)O [AB00444372] | 10.9 µM | > 50 µM |
| CCOc1ccc(Nc2nc3cc(S(=O)(=O)N(CC)CC)ccc3o2)cc1 [AB00536652] | 38.7 µM | > 50 µM |
